Assay results taken from patent US20190152962A1, “CYCLOPROPYL DERIVATIVES AS ROR-GAMMA MODULATORS” (CADILA HEALTHCARE LIMITED, priority 2016, published 2019).

Legend:
[1] = tested on: secreted IL-17 in peripheral blood mononuclear cells (PBMCs); test: Human IL-17 inhibition assay; format: cell-based; conditions: PBMC, anti-CD3/anti-CD28, 72 h, read-out: IL17 IC50
Protocol: Peripheral blood mononuclear cells (PBMCs) were isolated from healthy volunteers and subjected to T cell polarization assay. Two million PBMCs were placed on anti-CD3 (Biolegend, US) coated 96-well plates and 1 μg/mL of anti-CD28 (Biolegend, US) was added along with RORγt inhibitors or the vehicle control and incubated at 37° C. and 5% CO2 for 72 h. At the end of incubation time, the supernatant was collected and analyzed for secreted IL-17 using sandwich enzyme immunoassay (Mabtech AB, Sweden). The results were analyzed using Graphpad Prism and the half-maximal inhibitory concentrations (IC50) of the test compounds were derived (Table 4).

[2] = target: T1, full length human RORγt (Homo sapiens, UniProt P51449); test: 5×RORE based luciferase assay; format: cell-based; conditions: COS-7 cells transfected with 5×RORE-Luc and hRORγt, 18-20 h treatment
T1 construct: full length human RORγt together in COS-7 cells; expressed in transfected cells; host or cells: COS-7
T1 sequence (P51449 1-497 isoform P51449-2): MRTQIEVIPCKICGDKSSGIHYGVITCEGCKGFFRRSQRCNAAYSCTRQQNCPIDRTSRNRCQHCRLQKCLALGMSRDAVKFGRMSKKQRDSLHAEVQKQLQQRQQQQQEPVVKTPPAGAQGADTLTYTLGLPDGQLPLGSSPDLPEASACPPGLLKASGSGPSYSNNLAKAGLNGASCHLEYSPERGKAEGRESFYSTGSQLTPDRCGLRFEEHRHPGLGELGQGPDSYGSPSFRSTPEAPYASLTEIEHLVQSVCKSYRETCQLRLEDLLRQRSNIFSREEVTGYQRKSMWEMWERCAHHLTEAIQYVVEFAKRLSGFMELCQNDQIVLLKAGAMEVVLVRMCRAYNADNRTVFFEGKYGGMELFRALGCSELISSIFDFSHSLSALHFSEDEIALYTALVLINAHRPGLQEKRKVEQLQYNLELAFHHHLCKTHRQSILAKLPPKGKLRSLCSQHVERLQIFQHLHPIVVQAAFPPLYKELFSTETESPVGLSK
Protocol: Human RORγt (hRORγt) inhibitors were screened in RORE (RORγt Response Element) based Luciferase assay by transient transfection of 5×RORE (5 tandem repeats of RORγt Response Element) and full length human RORγt together in COS-7 cells. COS-7 cells were maintained as monolayer in complete DMEM (High Glucose) medium in presence of 2 mM Glutamin and 1× Sodium Pyruvate. Day before transfection, 15000 cells were seeded in 96 well cell culture plate in 100 μl antibiotic free medium and incubated at 37° C. in 5% CO2 containing humidified chamber O/N. Prior to transfection, cells were fed with fresh complete growth medium and incubated until the addition of transfection complex. Transfection complex for the required numbers of wells were prepared from pGL2-promoter-5×RORE-Luc plasmid, pcDNA3.1 (+)-hRORγt expression plasmid, pβ-GAL plasmid (transfection control), and Lipofectamine 3000 (Invitrogen). 50 μl of transfection complex were added in 100 μl of complete medium to respective wells, mixed gently and plate was incubated for 5-6 h at 37° C. in 5% CO2 containing humidified chamber. After 5 h of transfection, content of the wells were aspirated and cells were treated with increasing concentration of RORγt inverse agonist in medium devoid of serum with a final DMSO concentration of 0.2% for 18-20 h at 37° C. in 5% CO2 containing humidified chamber. Next day, cells were lysed and the lysates were assayed for luciferase and β-GAL activity using Promega's luciferase assay system and an in-house made β-GAL assay buffer respectively. Luciferase signals were normalized with β-GAL and % activity was determined with respect to that of 10 nM control ligand.
IC50 of selected compounds were then determined by nonlinear regression analysis of % activity, plotted against compound concentration (Table 4).

| Compound | IC50 [1] | IC50 [2] |
| --- | --- | --- |
| CCS(=O)(=O)c1ccc(CC(=O)Nc2cc(Cl)c(C3(c4noc(-c5ccc(F)cc5)n4)CC3)c(Cl)c2)cc1 [Example 1, N-(3,5-dichloro-4-(1-(5-(4-fluorophenyl)-1,2,4-oxadiazol-3-yl)cyclopropyl)phenyl)-2-(4-(ethylsulfonyl)phenyl)acetamide] | 6.6 nM | – |
| CCS(=O)(=O)c1ccc(CC(=O)Nc2cc(Cl)c(C3(c4noc(-c5ccccc5)n4)CC3)c(Cl)c2)cc1 [Example 2, N-(3,5-dichloro-4-(1-(5-phenyl-1,2,4-oxadiazol-3-yl)cyclopropyl)phenyl)-2-(4-(ethylsulfonyl)phenyl)acetamide] | 25 nM | 7 nM |
| CCS(=O)(=O)c1ccc(CC(=O)Nc2cc(Cl)c(C3(c4noc(-c5ccc(C(F)(F)F)cc5)n4)CC3)c(Cl)c2)cc1 [Example 3, N-(3,5-dichloro-4-(1-(5-(4-(trifluoromethyl)phenyl)-1,2,4-oxadiazol-3-yl)cyclopropyl)phenyl)-2-(4-(ethylsulfonyl)phenyl)acetamide] | 38.3 nM | 8.5 nM |
| CCS(=O)(=O)c1ccc(CC(=O)Nc2cc(Cl)c(C3(c4noc(-c5ccc(C)cc5)n4)CC3)c(Cl)c2)cc1 [Example 4, N-(3,5-dichloro-4-(1-(5-(p-tolyl)-1,2,4-oxadiazol-3-yl)cyclopropyl)phenyl)-2-(4-(ethylsulfonyl)phenyl)acetamide] | 15 nM | 1.46 nM |
| CCS(=O)(=O)c1ccc(CC(=O)Nc2cc(Cl)c(C3(c4noc(-c5ccc(F)c(F)c5)n4)CC3)c(Cl)c2)cc1 [Example 5, N-(3,5-dichloro-4-(1-(5-(3,4-difluorophenyl)-1,2,4-oxadiazol-3-yl)cyclopropyl)phenyl)-2-(4-(ethylsulfonyl)phenyl)acetamide] | 17 nM | 5.6 nM |
| CCS(=O)(=O)c1ccc(CC(=O)Nc2cc(Cl)c(C3(c4noc(-c5cccc(F)c5)n4)CC3)c(Cl)c2)cc1 [Example 6, N-(3,5-dichloro-4-(1-(5-(3-fluorophenyl)-1,2,4-oxadiazol-3-yl)cyclopropyl)phenyl)-2-(4-(ethylsulfonyl)phenyl)acetamide] | 35 nM | 3.4 nM |
| CCS(=O)(=O)c1ccc(CC(=O)Nc2cc(Cl)c(C3(c4noc(-c5ccc(F)cc5F)n4)CC3)c(Cl)c2)cc1 [Example 7, N-(3,5-dichloro-4-(1-(5-(2,4-difluorophenyl)-1,2,4-oxadiazol-3-yl)cyclopropyl)phenyl)-2-(4-(ethylsulfonyl)phenyl)acetamide] | 10.4 nM | 8.7 nM |
| CCS(=O)(=O)c1ccc(CC(=O)Nc2cc(Cl)c(C3(c4noc(-c5c(F)cc(F)cc5F)n4)CC3)c(Cl)c2)cc1 [Example 8, N-(3,5-dichloro-4-(1-(5-(2,4,6-trifluorophenyl)-1,2,4-oxadiazol-3-yl)cyclopropyl)phenyl)-2-(4-(ethylsulfonyl)phenyl)acetamide] | 2.7 nM | 11 nM |
| CCS(=O)(=O)c1ccc(CC(=O)Nc2cc(Cl)c(C3(c4noc(-c5ccc(F)cc5Cl)n4)CC3)c(Cl)c2)cc1 [Example 9, N-(3,5-dichloro-4-(1-(5-(2-chloro-4-fluorophenyl)-1,2,4-oxadiazol-3-yl)cyclopropyl)phenyl)-2-(4-(ethylsulfonyl)phenyl)acetamide] | 9.2 nM | 8.9 nM |
| CCS(=O)(=O)c1ccc(CC(=O)Nc2cc(Cl)c(C3(c4noc(-c5ccc(F)c(Cl)c5)n4)CC3)c(Cl)c2)cc1 [Example 10, N-(3,5-dichloro-4-(1-(5-(3-chloro-4-fluorophenyl)-1,2,4-oxadiazol-3-yl)cyclopropyl)phenyl)-2-(4-(ethylsulfonyl)phenyl)acetamide] | 9.4 nM | 6.8 nM |
| CCS(=O)(=O)c1ccc(CC(=O)Nc2cc(Cl)c(C3(c4noc(-c5ccc(Cl)c(Cl)c5)n4)CC3)c(Cl)c2)cc1 [Example 11, N-(3,5-dichloro-4-(1-(5-(3,4-dichlorophenyl)-1,2,4-oxadiazol-3-yl)cyclopropyl)phenyl)-2-(4-(ethylsulfonyl)phenyl)acetamide] | 14.7 nM | 15.9 nM |
| CCS(=O)(=O)c1ccc(CC(=O)Nc2cc(Cl)c(C3(c4noc(-c5ccc(Cl)cc5Cl)n4)CC3)c(Cl)c2)cc1 [Example 12, N-(3,5-dichloro-4-(1-(5-(2,4-dichlorophenyl)-1,2,4-oxadiazol-3-yl)cyclopropyl)phenyl)-2-(4-(ethylsulfonyl)phenyl)acetamide] | 10.6 nM | 5.9 nM |
| CCS(=O)(=O)c1ccc(CC(=O)Nc2cc(Cl)c(C3(c4noc(-c5ccc(Cl)cc5)n4)CC3)c(Cl)c2)cc1 [Example 13, N-(3,5-dichloro-4-(1-(5-(4-chlorophenyl)-1,2,4-oxadiazol-3-yl)cyclopropyl)phenyl)-2-(4-(ethylsulfonyl)phenyl)acetamide] | 27.2 nM | 8.9 nM |
| CCS(=O)(=O)c1ccc(CC(=O)Nc2cc(Cl)c(C3(c4noc(-c5ccc(C#N)cc5)n4)CC3)c(Cl)c2)cc1 [Example 14, N-(3,5-dichloro-4-(1-(5-(4-cyanophenyl)-1,2,4-oxadiazol-3-yl)cyclopropyl)phenyl)-2-(4-(ethylsulfonyl)phenyl)acetamide] | 9.5 nM | 1.3 nM |
| CCS(=O)(=O)c1ccc(CC(=O)Nc2cc(Cl)c(C3(c4noc(-c5ccc(OC)cc5F)n4)CC3)c(Cl)c2)cc1 [Example 15, N-(3,5-dichloro-4-(1-(5-(2-fluoro-4-methoxyphenyl)-1,2,4-oxadiazol-3-yl)cyclopropyl)phenyl)-2-(4-(ethylsulfonyl)phenyl)acetamide] | 27 nM | 5.7 nM |
| CCS(=O)(=O)c1ccc(CC(=O)Nc2cc(Cl)c(C3(c4noc(-c5cccs5)n4)CC3)c(Cl)c2)cc1 [Example 16, N-(3,5-dichloro-4-(1-(5-(thiophen-2-yl)-1,2,4-oxadiazol-3-yl)cyclopropyl)phenyl)-2-(4-(ethylsulfonyl)phenyl)acetamide] | 42 nM | 0.9 nM |
| CCS(=O)(=O)c1ccc(CC(=O)Nc2cc(Cl)c(C3(c4noc(-c5ccc(Cl)s5)n4)CC3)c(Cl)c2)cc1 [Example 17, N-(3,5-dichloro-4-(1-(5-(5-chlorothiophen-2-yl)-1,2,4-oxadiazol-3-yl)cyclopropyl)phenyl)-2-(4-(ethylsulfonyl)phenyl)acetamide] | 6 nM | 1.9 nM |
| CCS(=O)(=O)c1ccc(CC(=O)Nc2cc(Cl)c(C3(c4noc(-c5ccc(C)s5)n4)CC3)c(Cl)c2)cc1 [Example 18, N-(3,5-dichloro-4-(1-(5-(5-methylthiophen-2-yl)-1,2,4-oxadiazol-3-yl)cyclopropyl)phenyl)-2-(4-(ethylsulfonyl)phenyl)acetamide] | 23.7 nM | 3.9 nM |
| CCS(=O)(=O)c1ccc(CC(=O)Nc2cc(Cl)c(C3(c4noc(-c5cccnc5)n4)CC3)c(Cl)c2)cc1 [Example 19, N-(3,5-dichloro-4-(1-(5-(pyridin-3-yl)-1,2,4-oxadiazol-3-yl)cyclopropyl)phenyl)-2-(4-(ethylsulfonyl)phenyl)acetamide] | 27 nM | 1.58 nM |
| CCS(=O)(=O)c1ccc(CC(=O)Nc2cc(Cl)c(C3(c4noc(-c5ccc(OC)nc5)n4)CC3)c(Cl)c2)cc1 [Example 20, N-(3,5-dichloro-4-(1-(5-(6-methoxypyridin-3-yl)-1,2,4-oxadiazol-3-yl)cyclopropyl)phenyl)-2-(4-(ethylsulfonyl)phenyl)acetamide] | 11.3 nM | 15.8 nM |
